For two compounds, Kd results are on record in ChEMBL document CHEMBL4321812, “Structure-based rational design of staurosporine-based fluorescent probe with broad-ranging kinase affinity for kinase panel application” (Bioorg Med Chem Lett, 2019).

A value given as a limit tells only on which side of the number the result lay.

The target of assay [1] is Serine/threonine-protein kinase Sgk1 (Homo sapiens, UniProt O00141). The assay is described as follows: Binding affinity to recombinant full-length N-terminal His-FLAG-GST-tagged SGK1 (unknown origin) (60 to 431 residues) expressed in baculovirus infected Sf9 insect cells incubated for 1 hr by TR-FRET assay.
Assay [2] addresses Serine/threonine-protein kinase pim-1 (Homo sapiens, UniProt P11309). Description: Binding affinity to recombinant human full-length N-terminal his-tagged PIM1 expressed in baculovirus expression system using S6K2 peptide as substrate incubated for 1 hr by TR-FRET assay.
Assay [3] has as its target RAC-gamma serine/threonine-protein kinase (Homo sapiens, UniProt Q9Y243). The assay is described as follows: Binding affinity to recombinant full-length N-terminal His-FLAG-GST-tagged AKT3 (unknown origin) (108 to 479 residues) expressed in baculovirus infected Sf9 insect cells incubated for 1 hr by TR-FRET assay.
In a further assay the target is LIM domain kinase 1 (Homo sapiens, UniProt P53667). Description: Binding affinity to truncated human N-terminal GST-tagged LIMK1 (285 to 638 residues) expressed in baculovirus expression system using cofilin2 as substrate incubated for 1 hr by TR-FRET assay. A general note: In TR-FRET formats the signal depends on donor and acceptor labels being close together.
Assay [4] addresses Calcium/calmodulin-dependent protein kinase type II subunit gamma (Homo sapiens, UniProt Q13555). Description: Binding affinity to recombinant full-length N-terminal His-FLAG-GST-tagged CAMK2G (unknown origin) expressed in baculovirus infected Sf9 insect cells incubated for 1 hr in presence of calmodulin by TR-FRET assay.
Assay [5] has as its target Tyrosine-protein kinase Mer (Homo sapiens, UniProt Q12866). The assay is described as follows: Binding affinity to recombinant full-length N-terminal His-FLAG-GST-tagged MERTK (unknown origin) (528 to 999 residues) expressed in baculovirus infected Sf9 insect cells incubated for 1 hr by TR-FRET assay.
Assay [6] concerns the target AP2-associated protein kinase 1 (Homo sapiens, UniProt Q2M2I8). Description: Binding affinity to recombinant full-length N-terminal His-FLAG-GST-tagged AAK1 (unknown origin) expressed in baculovirus infected Sf9 insect cells incubated for 1 hr by TR-FRET assay.
Assay [7] concerns the target Fibroblast growth factor receptor 2 (Homo sapiens, UniProt P21802). Description: Binding affinity to recombinant N-terminal His-FLAG-GST-tagged FGFR2 (unknown origin) (399 to 821 residues) expressed in baculovirus infected Sf9 insect cells incubated for 1 hr by TR-FRET assay.
The target of assay [8] is Dual specificity protein kinase CLK2 (Homo sapiens, UniProt P49760). Description: Binding affinity to recombinant full-length N-terminal His-FLAG-GST-tagged CLK2 (unknown origin) expressed in baculovirus infected Sf9 insect cells incubated for 1 hr by TR-FRET assay.
The target of assay [9] is Protein kinase C eta type (Homo sapiens, UniProt P24723). The assay is described as follows: Binding affinity to recombinant full-length N-terminal His-FLAG-GST-tagged PRKCH (unknown origin) expressed in baculovirus infected Sf9 insect cells incubated for 1 hr by TR-FRET assay.
Assay [10] addresses Non-receptor tyrosine-protein kinase TYK2 (Homo sapiens, UniProt P29597). The assay is described as follows: Binding affinity to recombinant N-terminal His-FLAG-GST-tagged TYK2 (unknown origin) (871 to 1187 residues) expressed in baculovirus infected Sf9 insect cells incubated for 1 hr by TR-FRET assay.
The next assay concerns the target Misshapen-like kinase 1 (Homo sapiens, UniProt Q8N4C8). The assay is described as follows: Binding affinity to recombinant full-length N-terminal His-FLAG-GST-tagged MINK1 (unknown origin) (1 to 314 residues) expressed in baculovirus infected Sf9 insect cells incubated for 1 hr by TR-FRET assay.
The target of assay [11] is NUAK family SNF1-like kinase 1 (Homo sapiens, UniProt O60285). Description: Binding affinity to recombinant full-length N-terminal His-FLAG-GST-tagged NUAK1 (unknown origin) expressed in baculovirus infected Sf9 insect cells incubated for 1 hr by TR-FRET assay.
In another assay the target is TGF-beta receptor type-2 (Homo sapiens, UniProt P37173). The assay is described as follows: Binding affinity to recombinant N-terminal His-FLAG-GST-tagged TGFBR2 (unknown origin) (194 to 567 residues) expressed in baculovirus infected Sf9 insect cells incubated for 1 hr by TR-FRET assay.
Assay [12] deals with Calcium/calmodulin-dependent protein kinase kinase 1 (Homo sapiens, UniProt Q8N5S9). The assay is described as follows: Binding affinity to recombinant full-length N-terminal His-FLAG-GST-tagged CAMKK1 (unknown origin) expressed in baculovirus infected Sf9 insect cells incubated for 1 hr in presence of calmodulin by TR-FRET assay.
For assay [13], the target named is Tyrosine-protein kinase CSK (Homo sapiens, UniProt P41240). The assay is described as follows: Binding affinity to recombinant full-length N-terminal His-FLAG-tagged CSK (unknown origin) expressed in baculovirus infected Sf9 insect cells incubated for 1 hr by TR-FRET assay.
Assay [14] addresses Dual specificity tyrosine-phosphorylation-regulated kinase 1A (Homo sapiens, UniProt Q13627). Description: Binding affinity to recombinant full-length N-terminal His-FLAG-GST-tagged DYRK1A (unknown origin) expressed in baculovirus infected Sf9 insect cells incubated for 1 hr by TR-FRET assay.
Assay [15] concerns the target Epithelial discoidin domain-containing receptor 1 (Homo sapiens, UniProt Q08345). The assay is described as follows: Binding affinity to recombinant N-terminal His-FLAG-GST-tagged DDR1 (unknown origin) (444 to 876 residues) expressed in baculovirus infected Sf9 insect cells incubated for 1 hr by TR-FRET assay.
Assay [16] deals with Tyrosine-protein kinase Lck (Homo sapiens, UniProt P06239). Description: Binding affinity to recombinant human full length N-terminal GST-tagged LCK expressed in baculovirus expression system using srctide as substrate incubated for 1 hr by TR-FRET assay.
Assay [17] has as its target Serine/threonine-protein kinase PAK 5 (Homo sapiens, UniProt Q9P286). Description: Binding affinity to recombinant N-terminal His-FLAG-GST-tagged PAK7 (unknown origin) (425 to 719 residues) expressed in baculovirus infected Sf9 insect cells incubated for 1 hr by TR-FRET assay.
Assay [18] has as its target Serine/threonine-protein kinase 33 (Homo sapiens, UniProt Q9BYT3). Description: Binding affinity to recombinant full-length N-terminal His-FLAG-GST-tagged STK33 (unknown origin) expressed in baculovirus infected Sf9 insect cells incubated for 1 hr by TR-FRET assay.
Assay [19] addresses Ribosomal protein S6 kinase alpha-2 (Homo sapiens, UniProt Q15349). The assay is described as follows: Binding affinity to recombinant human full length N-terminal GST-tagged RPS6KA2 expressed in baculovirus expression system using S6K peptide as substrate incubated for 1 hr by TR-FRET assay.
Assay [20] addresses Tyrosine-protein kinase Lyn (Homo sapiens, UniProt P07948). Description: Binding affinity to recombinant full-length N-terminal His-FLAG-GST-tagged LYN (unknown origin) expressed in baculovirus infected Sf9 insect cells incubated for 1 hr by TR-FRET assay.
The target of assay [21] is Serine/threonine-protein kinase 32A (Homo sapiens, UniProt Q8WU08). The assay is described as follows: Binding affinity to recombinant full-length N-terminal His-FLAG-tagged STK32A (unknown origin) expressed in baculovirus infected Sf9 insect cells incubated for 1 hr by TR-FRET assay.

Fibroblast growth factor receptor 2, sequence (P21802 whole entry, the tested form may be a part): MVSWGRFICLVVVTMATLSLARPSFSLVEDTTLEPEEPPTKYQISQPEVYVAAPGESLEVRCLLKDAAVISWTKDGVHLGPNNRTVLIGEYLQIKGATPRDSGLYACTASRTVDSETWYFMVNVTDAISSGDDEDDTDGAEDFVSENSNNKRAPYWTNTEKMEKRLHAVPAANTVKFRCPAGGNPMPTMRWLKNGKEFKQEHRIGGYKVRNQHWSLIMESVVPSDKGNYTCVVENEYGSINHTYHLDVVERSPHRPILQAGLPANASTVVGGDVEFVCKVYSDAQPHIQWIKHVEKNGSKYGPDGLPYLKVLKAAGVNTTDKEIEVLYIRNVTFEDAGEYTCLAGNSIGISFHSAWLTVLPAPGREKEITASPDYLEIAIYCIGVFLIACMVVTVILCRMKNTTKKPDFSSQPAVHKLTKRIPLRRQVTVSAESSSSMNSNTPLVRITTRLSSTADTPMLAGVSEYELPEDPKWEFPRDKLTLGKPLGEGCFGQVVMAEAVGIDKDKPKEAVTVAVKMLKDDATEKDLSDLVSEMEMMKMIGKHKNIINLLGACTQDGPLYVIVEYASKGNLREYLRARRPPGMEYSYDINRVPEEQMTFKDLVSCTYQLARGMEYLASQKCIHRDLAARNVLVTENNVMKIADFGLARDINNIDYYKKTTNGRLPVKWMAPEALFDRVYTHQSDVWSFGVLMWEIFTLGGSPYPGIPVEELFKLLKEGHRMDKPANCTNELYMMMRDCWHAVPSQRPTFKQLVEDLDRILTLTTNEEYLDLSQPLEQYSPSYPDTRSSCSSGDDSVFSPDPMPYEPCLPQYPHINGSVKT
LIM domain kinase 1, sequence (P53667 whole entry, the tested form may be a part): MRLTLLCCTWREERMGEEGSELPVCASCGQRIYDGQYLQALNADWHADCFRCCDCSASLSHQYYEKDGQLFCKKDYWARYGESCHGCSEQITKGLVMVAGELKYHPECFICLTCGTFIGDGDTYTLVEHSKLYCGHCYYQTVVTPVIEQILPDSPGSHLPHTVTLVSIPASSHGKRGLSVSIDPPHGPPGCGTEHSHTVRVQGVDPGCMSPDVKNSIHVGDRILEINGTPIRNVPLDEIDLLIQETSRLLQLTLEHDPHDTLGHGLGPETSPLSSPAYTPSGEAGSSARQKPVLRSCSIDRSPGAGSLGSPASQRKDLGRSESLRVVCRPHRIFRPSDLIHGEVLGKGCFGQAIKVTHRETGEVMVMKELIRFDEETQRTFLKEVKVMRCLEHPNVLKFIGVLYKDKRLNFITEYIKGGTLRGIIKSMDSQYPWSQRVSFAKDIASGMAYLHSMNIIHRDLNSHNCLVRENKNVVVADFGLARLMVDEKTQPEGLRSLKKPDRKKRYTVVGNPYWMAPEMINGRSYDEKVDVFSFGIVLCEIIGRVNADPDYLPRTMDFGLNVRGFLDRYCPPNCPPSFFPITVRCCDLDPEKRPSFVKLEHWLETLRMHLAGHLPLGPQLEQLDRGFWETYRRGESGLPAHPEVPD
AP2-associated protein kinase 1, sequence (Q2M2I8 whole entry, the tested form may be a part): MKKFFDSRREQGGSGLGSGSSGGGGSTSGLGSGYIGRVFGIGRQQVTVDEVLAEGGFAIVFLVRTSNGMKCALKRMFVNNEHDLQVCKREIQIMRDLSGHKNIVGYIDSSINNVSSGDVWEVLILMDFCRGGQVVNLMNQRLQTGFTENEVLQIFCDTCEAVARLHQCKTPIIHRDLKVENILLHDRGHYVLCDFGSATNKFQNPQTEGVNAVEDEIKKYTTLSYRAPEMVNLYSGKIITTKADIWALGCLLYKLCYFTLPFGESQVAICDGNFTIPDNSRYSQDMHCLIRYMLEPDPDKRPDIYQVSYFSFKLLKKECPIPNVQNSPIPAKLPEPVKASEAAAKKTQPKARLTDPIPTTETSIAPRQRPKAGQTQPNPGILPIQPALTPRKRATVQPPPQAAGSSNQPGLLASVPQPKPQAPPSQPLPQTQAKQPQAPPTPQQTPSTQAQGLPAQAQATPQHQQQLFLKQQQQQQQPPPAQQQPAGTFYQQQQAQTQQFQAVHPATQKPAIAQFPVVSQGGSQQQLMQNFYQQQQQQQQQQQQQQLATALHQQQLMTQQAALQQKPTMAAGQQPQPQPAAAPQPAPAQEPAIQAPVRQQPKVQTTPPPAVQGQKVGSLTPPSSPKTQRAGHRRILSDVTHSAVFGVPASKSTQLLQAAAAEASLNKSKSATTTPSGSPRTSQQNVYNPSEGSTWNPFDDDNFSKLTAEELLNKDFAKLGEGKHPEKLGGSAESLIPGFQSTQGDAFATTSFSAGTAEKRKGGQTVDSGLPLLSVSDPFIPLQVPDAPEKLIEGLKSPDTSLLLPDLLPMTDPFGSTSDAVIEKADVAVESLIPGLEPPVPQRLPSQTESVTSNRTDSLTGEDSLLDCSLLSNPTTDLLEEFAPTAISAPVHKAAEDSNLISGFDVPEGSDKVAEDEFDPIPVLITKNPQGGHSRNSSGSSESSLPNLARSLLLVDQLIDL
Serine/threonine-protein kinase PAK 5, sequence (Q9P286 whole entry, the tested form may be a part): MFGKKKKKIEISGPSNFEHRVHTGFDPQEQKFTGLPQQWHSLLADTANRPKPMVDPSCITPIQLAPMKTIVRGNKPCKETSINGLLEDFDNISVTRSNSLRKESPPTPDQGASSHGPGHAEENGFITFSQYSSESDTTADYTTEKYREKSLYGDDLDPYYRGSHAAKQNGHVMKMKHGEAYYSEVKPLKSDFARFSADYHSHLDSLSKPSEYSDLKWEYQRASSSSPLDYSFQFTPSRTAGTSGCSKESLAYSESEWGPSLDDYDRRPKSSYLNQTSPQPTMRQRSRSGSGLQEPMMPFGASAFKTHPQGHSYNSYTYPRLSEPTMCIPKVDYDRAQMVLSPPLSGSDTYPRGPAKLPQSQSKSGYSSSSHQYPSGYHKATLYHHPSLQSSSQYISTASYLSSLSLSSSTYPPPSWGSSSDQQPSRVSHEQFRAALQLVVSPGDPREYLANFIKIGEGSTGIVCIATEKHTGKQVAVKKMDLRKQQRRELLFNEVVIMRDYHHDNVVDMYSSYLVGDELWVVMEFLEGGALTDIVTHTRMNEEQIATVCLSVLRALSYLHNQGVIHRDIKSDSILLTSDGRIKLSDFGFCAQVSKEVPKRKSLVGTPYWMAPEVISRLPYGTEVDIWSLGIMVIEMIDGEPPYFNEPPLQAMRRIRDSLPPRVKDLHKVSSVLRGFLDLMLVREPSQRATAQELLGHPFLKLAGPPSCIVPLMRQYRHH
Serine/threonine-protein kinase Sgk1, sequence (O00141 whole entry, the tested form may be a part): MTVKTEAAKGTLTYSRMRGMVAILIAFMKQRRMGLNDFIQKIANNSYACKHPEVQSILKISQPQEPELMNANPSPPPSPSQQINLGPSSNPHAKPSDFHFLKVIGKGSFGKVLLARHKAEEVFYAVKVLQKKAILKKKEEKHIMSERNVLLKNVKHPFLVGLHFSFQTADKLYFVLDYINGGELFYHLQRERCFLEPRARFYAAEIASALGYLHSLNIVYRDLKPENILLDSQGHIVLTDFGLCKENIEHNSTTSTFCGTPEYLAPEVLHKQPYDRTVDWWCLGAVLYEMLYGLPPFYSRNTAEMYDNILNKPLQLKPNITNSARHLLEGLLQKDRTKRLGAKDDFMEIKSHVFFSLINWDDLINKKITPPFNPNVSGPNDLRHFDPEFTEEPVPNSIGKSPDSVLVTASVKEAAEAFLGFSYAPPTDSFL
Non-receptor tyrosine-protein kinase TYK2, sequence (P29597 whole entry, the tested form may be a part): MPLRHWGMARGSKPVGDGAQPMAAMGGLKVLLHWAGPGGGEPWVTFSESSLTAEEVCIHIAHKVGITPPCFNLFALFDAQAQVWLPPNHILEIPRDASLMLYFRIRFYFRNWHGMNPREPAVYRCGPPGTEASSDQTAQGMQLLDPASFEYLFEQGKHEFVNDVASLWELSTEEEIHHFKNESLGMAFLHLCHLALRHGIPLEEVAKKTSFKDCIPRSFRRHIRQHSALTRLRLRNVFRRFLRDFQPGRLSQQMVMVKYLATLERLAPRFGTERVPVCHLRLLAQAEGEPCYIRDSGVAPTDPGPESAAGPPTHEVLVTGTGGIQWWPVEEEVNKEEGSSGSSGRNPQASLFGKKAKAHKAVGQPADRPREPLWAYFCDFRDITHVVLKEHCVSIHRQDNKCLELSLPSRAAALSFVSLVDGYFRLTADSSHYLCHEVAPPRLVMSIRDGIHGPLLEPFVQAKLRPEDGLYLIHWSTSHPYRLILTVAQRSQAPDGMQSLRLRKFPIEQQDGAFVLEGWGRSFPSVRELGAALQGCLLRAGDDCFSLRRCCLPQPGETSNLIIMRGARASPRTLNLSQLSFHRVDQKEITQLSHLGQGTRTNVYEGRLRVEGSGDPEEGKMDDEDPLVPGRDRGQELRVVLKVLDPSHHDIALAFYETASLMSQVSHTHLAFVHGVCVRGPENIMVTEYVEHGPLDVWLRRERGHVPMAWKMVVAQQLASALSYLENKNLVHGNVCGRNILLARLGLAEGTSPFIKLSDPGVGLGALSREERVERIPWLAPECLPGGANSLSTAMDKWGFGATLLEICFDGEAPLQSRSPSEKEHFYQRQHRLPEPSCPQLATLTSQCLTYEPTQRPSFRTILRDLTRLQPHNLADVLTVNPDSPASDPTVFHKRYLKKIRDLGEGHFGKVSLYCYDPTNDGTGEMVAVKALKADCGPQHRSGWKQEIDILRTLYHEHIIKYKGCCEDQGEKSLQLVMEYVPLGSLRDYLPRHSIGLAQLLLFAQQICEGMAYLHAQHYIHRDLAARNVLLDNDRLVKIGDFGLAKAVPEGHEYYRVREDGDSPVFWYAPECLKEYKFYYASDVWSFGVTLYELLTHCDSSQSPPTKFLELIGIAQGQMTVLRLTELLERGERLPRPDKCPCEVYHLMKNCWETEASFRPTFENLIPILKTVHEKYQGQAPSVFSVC

One may read the Kd as the concentration at which binding is half-saturated. With `CO[C@@H]1[C@H](N(C)CCOCCOCCOCCNC(=O)CCC2=[N+]3C(=Cc4c(C)cc(C)n4[B-]3(F)F)C=C2)C[C@H]2O[C@]1(C)n1c3ccccc3c3c4c(c5c6ccccc6n2c5c31)C(=O)NC4`, the Kd in assay [1] amounted to 566 nM; in [2], 285 nM; in assay [3], 537 nM; on LIM domain kinase 1, 32 nM; in [4] it was 9 nM; in assay [5], 108 nM. Further, the Kd in assay [6] came to 5 nM; in [7] it was 361 nM; in assay [8], 396 nM; in [9] it was 37 nM; in assay [10], 49 nM; at Misshapen-like kinase 1, 158 nM. For the same compound, the Kd in assay [11] was 13 nM; on TGF-beta receptor type-2, over 2000 nM; in [12] it was 14 nM; in [13], 1010 nM; in assay [14] it was 102 nM; in assay [15], 888 nM. In addition, the Kd stood at 92 nM in assay [16]; 53 nM in assay [17]; 6 nM in assay [18]; 4 nM in [19]; 116 nM in assay [20]; 1750 nM in [21].

Turning to `CO[C@@H]1[C@H](NCCOCCOCCOCCNC(=O)CCC2=[N+]3C(=Cc4c(C)cc(C)n4[B-]3(F)F)C=C2)C[C@H]2O[C@]1(C)n1c3ccccc3c3c4c(c5c6ccccc6n2c5c31)C(=O)NC4`, the Kd worked out at 331 nM in [1]; 207 nM in assay [2]; 749 nM in [3]; 6 nM at LIM domain kinase 1; 8 nM in assay [4]; 107 nM in assay [5]. The Kd in [6] stood at 6 nM; in [7] it was 242 nM; in assay [8] it was 318 nM; in assay [9], 61 nM; in assay [10], 8 nM; on Misshapen-like kinase 1, 228 nM. Further, the Kd in assay [11] came to 15 nM; on TGF-beta receptor type-2 it was 854 nM; in assay [12], 11 nM; in assay [13], 879 nM; in assay [14] it was 138 nM; in assay [15], 674 nM. The Kd in [16] was determined as 94 nM; in [17], 40 nM; in [18], 8 nM; in assay [19] it was 8 nM; in assay [20], 63 nM; in assay [21] it was 1540 nM.
